Read-outs that look alike come from different tables or passages of the source. Bridge positions count the residues as written; N and C are the ends. Square brackets hold non-standard residues; d marks the D form. Triazole bridges read from a SMILES are 1,4-linked. Peptide text beside a SMILES is read from it. * marks the point of attachment. Biotin = O=C1N[C@H]2[C@H](CS[C@H]2CCCCC(=O)*)N1; PEG10 = NCCOCCOCCOCCOCCOCCOCCOCCOCCOCCOCCC(=O)O; Lys(N3) = [N-]=[N+]=NCCCC[C@H](N)C(=O)O; Orn(N3) = [N-]=[N+]=NCCC[C@H](N)C(=O)O; Phe(4-F) = N[C@@H](Cc1ccc(F)cc1)C(=O)O; PEG5 = NCCOCCOCCOCCOCCOCCC(=O)O; Pra = C#CC[C@H](N)C(=O)O
Legend:
[1] = target: full-length recombinant MrkA protein (Klebsiella pneumoniae, UniProt P12267); assay type: binding; settings: for affinities to MrkA: ELISA, stated as 'likely'; for binding to full-length MrkA compared to cy(LLFFF): sandwich ELISA, alanine scan and analogues
Text: HPraGly is present before X1 in each peptide and Az4 follows X5 in each peptide.

[2] = Isocratic point, elution from C18 prep-scale column; assay type: physicochemical; settings: elution from C18 column
Protocol: PCC compounds were purified on a Waters Autopurification system, which isolated compounds based on MS peaks corresponding to protonated [M+1H]^+ and [M+2H]^2+, and/or sodium adducts [M+Na]^+ and [M+2Na]^2+. The isocratic points of PCCs were determined based on the elution of the compound from a C18 prep-scale column. Synthetic epitopes were either purified on the Waters Autopurification System, or by semi-preparative HPLC and then using matrix-assisted laser desorption/ionization mass spectroscopy to identify fractions with the desired m/z ratio. The resulting peptides were lyophilized, the yield determined by mass difference or UV-visible absorbance, and resuspended at a concentration of up to 10 mM peptide in DMSO. Peptides were stored at −80° C. before thawing for each use.

| Compound | Relative affinity (ratio of ELISA signal versus cy(LLFFF)) ([1]; ELISA 2, [MrkA] 25 nM) | Isocratic point (%) [2] | binding to full-length MrkA compared to cy(LLFFF) [1] | further results |
| --- | --- | --- | --- | --- |
| CC(C)C[C@@H]1NC(=O)[C@@H](NC(=O)CCOCCOCCOCCOCCOCCOCCOCCOCCOCCOCCNC(=O)CCCC[C@@H]2SC[C@@H]3NC(=O)N[C@@H]32)Cc2cn(nn2)CCCC[C@@H](C(N)=O)NC(=O)[C@H](Cc2ccccc2)NC(=O)[C@H](Cc2ccccc2)NC(=O)[C@H](Cc2ccccc2)NC(=O)[C@H](CC(C)C)NC1=O [Ref. compound] ({Biotin-PEG10}-[Pra]LLFFF[Lys(N3)]-NH2; triazole 1-7) | 1.00 | – | – | Relative affinity (ratio of ELISA signal versus cy(LLFFF)) ([1]; ELISA 1, [MrkA] for ELISA N/A): 1.00; Relative affinity (ratio of ELISA signal versus cy(LLFFF)) ([1]; ELISA 3, [MrkA] 50 nM): 1.00; Relative affinity (ratio of ELISA signal versus cy(LLFFF)) ([1]; ELISA 4, [MrkA] 100 nM): 1.00; Relative affinity (ratio of ELISA signal versus cy(LLFFF)) ([1]; ELISA 5, [MrkA] 25 nM): 1.00; Relative affinity (ratio of ELISA signal versus cy(LLFFF)) ([1]; ELISA 6, [MrkA] 25 nM): 1.00; Isocratic point (%) ([2]; N-terminal tag Bio-Peg10-peg10-): 74.53%; Isocratic point (%) ([2]; N-terminal tag Bio-peg5-): 78.85%; Isocratic point (%) ([2]; N-terminal tag Bio-peg10-): 75.88% |
| CC(C)C[C@@H]1NC(=O)[C@H](C)NC(=O)[C@@H](NC(=O)CCOCCOCCOCCOCCOCCOCCOCCOCCOCCOCCNC(=O)CCCC[C@@H]2SC[C@@H]3NC(=O)N[C@@H]32)Cc2cn(nn2)CCCC[C@@H](C(N)=O)NC(=O)[C@H](Cc2ccccc2)NC(=O)[C@H](Cc2ccccc2)NC(=O)[C@H](Cc2ccccc2)NC1=O [compound 2] ({Biotin-PEG10}-[Pra]ALFFF[Lys(N3)]-NH2; triazole 1-7) | 0.53 | 65.55% | – | – |
| CC(C)C[C@@H]1NC(=O)[C@@H](NC(=O)CCOCCOCCOCCOCCOCCOCCOCCOCCOCCOCCNC(=O)CCCC[C@@H]2SC[C@@H]3NC(=O)N[C@@H]32)Cc2cn(nn2)CCCC[C@@H](C(N)=O)NC(=O)[C@H](Cc2ccccc2)NC(=O)[C@H](Cc2ccccc2)NC(=O)[C@H](Cc2ccccc2)NC(=O)[C@H](C)NC1=O [compound 3] ({Biotin-PEG10}-[Pra]LAFFF[Lys(N3)]-NH2; triazole 1-7) | 0.26 | 66.00% | – | – |
| CC(C)C[C@@H]1NC(=O)[C@H](CC(C)C)NC(=O)[C@@H](NC(=O)CCOCCOCCOCCOCCOCCOCCOCCOCCOCCOCCNC(=O)CCCC[C@@H]2SC[C@@H]3NC(=O)N[C@@H]32)Cc2cn(nn2)CCCC[C@@H](C(N)=O)NC(=O)[C@H](Cc2ccccc2)NC(=O)[C@H](Cc2ccccc2)NC(=O)[C@H](C)NC1=O [compound 4] ({Biotin-PEG10}-[Pra]LLAFF[Lys(N3)]-NH2; triazole 1-7) | 0.59 | 70.97% | – | – |
| CC(C)C[C@@H]1NC(=O)[C@@H](NC(=O)CCOCCOCCOCCOCCOCCOCCOCCOCCOCCOCCNC(=O)CCCC[C@@H]2SC[C@@H]3NC(=O)N[C@@H]32)Cc2cn(nn2)CCCC[C@@H](C(N)=O)NC(=O)[C@H](Cc2ccccc2)NC(=O)[C@H](C)NC(=O)[C@H](Cc2ccccc2)NC(=O)[C@H](CC(C)C)NC1=O [compound 5] ({Biotin-PEG10}-[Pra]LLFAF[Lys(N3)]-NH2; triazole 1-7) | 0.10 | 66.00% | – | – |
| CC(C)C[C@@H]1NC(=O)[C@@H](NC(=O)CCOCCOCCOCCOCCOCCOCCOCCOCCOCCOCCNC(=O)CCCC[C@@H]2SC[C@@H]3NC(=O)N[C@@H]32)CCCCn2cc(nn2)C[C@@H](C(N)=O)NC(=O)[C@H](C)NC(=O)[C@H](Cc2ccccc2)NC(=O)[C@H](Cc2ccccc2)NC(=O)[C@H](CC(C)C)NC1=O [compound 6] ({Biotin-PEG10}-[Lys(N3)]LLFFA[Pra]-NH2; triazole 1-7) | 0.04 | 64.43% | – | – |
| C[C@@H]1NC(=O)[C@H](C)NC(=O)[C@@H](NC(=O)CCOCCOCCOCCOCCOCCOCCOCCOCCOCCOCCNC(=O)CCCC[C@@H]2SC[C@@H]3NC(=O)N[C@@H]32)Cc2cn(nn2)CCCC[C@@H](C(N)=O)NC(=O)[C@H](Cc2ccccc2)NC(=O)[C@H](Cc2ccccc2)NC(=O)[C@H](Cc2ccccc2)NC1=O [compound 7] ({Biotin-PEG10}-[Pra]AAFFF[Lys(N3)]-NH2; triazole 1-7) | – | 54.65% | – | Relative affinity (ratio of ELISA signal versus cy(LLFFF)) ([1]; ELISA 3, [MrkA] 50 nM): 0.15 |
| CC(C)C[C@@H]1NC(=O)[C@@H](NC(=O)CCOCCOCCOCCOCCOCCOCCOCCOCCOCCOCCNC(=O)CCCC[C@@H]2SC[C@@H]3NC(=O)N[C@@H]32)Cc2cn(nn2)CCCC[C@@H](C(N)=O)NC(=O)[C@H](Cc2ccccc2)NC(=O)[C@H](Cc2ccccc2)NC(=O)[C@H](Cc2ccccc2)NC1=O [compound 8] ({Biotin-PEG10}-[Pra]LFFF[Lys(N3)]-NH2; triazole 1-6) | – | 61.84% | – | Relative affinity (ratio of ELISA signal versus cy(LLFFF)) ([1]; ELISA 3, [MrkA] 50 nM): 0.46 |
| CC(C)C[C@@H]1NC(=O)[C@@H](NC(=O)CCOCCOCCOCCOCCOCCOCCOCCOCCOCCOCCNC(=O)CCCC[C@@H]2SC[C@@H]3NC(=O)N[C@@H]32)Cc2cn(nn2)CCC[C@@H](C(N)=O)NC(=O)[C@H](Cc2ccccc2)NC(=O)[C@H](Cc2ccccc2)NC(=O)[C@H](Cc2ccccc2)NC(=O)[C@H](CC(C)C)NC1=O [compound 10] ({Biotin-PEG10}-[Pra]LLFFF[Orn(N3)]-NH2; triazole 1-7) | – | 76.89% | – | Relative affinity (ratio of ELISA signal versus cy(LLFFF)) ([1]; ELISA 3, [MrkA] 50 nM): 0.89 |
| CC(C)C[C@@H]1NC(=O)[C@@H](NC(=O)CCOCCOCCOCCOCCOCCOCCOCCOCCOCCOCCNC(=O)CCCC[C@@H]2SC[C@@H]3NC(=O)N[C@@H]32)Cc2cn(nn2)CCCC[C@@H](C(N)=O)NC(=O)[C@H](Cc2ccc(F)cc2)NC(=O)[C@H](Cc2ccccc2)NC(=O)[C@H](Cc2ccccc2)NC(=O)[C@H](CC(C)C)NC1=O [compound 11] ({Biotin-PEG10}-[Pra]LLFF[Phe(4-F)][Lys(N3)]-NH2; triazole 1-7) | – | 75.53% | – | Relative affinity (ratio of ELISA signal versus cy(LLFFF)) ([1]; ELISA 3, [MrkA] 50 nM): 0.88 |
| C[C@@H](O)[C@@H]1NC(=O)[C@@H](NC(=O)CCOCCOCCOCCOCCOCCNC(=O)CCCC[C@@H]2SC[C@@H]3NC(=O)N[C@@H]32)Cc2cn(nn2)CCCC[C@@H](C(N)=O)NC(=O)[C@H](Cc2ccccc2)NC(=O)[C@H](Cc2ccccc2)NC(=O)[C@H](Cc2ccccc2)NC(=O)[C@H]([C@@H](C)O)NC1=O [compound 13] ({Biotin-PEG5}-[Pra]TTFFF[Lys(N3)]-NH2; triazole 1-7) | – | 53.40% | – | Relative affinity (ratio of ELISA signal versus cy(LLFFF)) ([1]; ELISA 4, [MrkA] 100 nM): 0.04 |
| CC(C)C[C@@H]1NC(=O)[C@@H](NC(=O)CCOCCOCCOCCOCCOCCOCCOCCOCCOCCOCCNC(=O)[C@H](CCCNC(=N)N)NC(=O)[C@H](CCCNC(=N)N)NC(=O)[C@H](CCCNC(=N)N)NC(=O)CCOCCOCCOCCOCCOCCOCCOCCOCCOCCOCCNC(=O)CCCC[C@@H]2SC[C@@H]3NC(=O)N[C@@H]32)Cc2cn(nn2)CCCC[C@@H](C(N)=O)NC(=O)[C@H](Cc2ccccc2)NC(=O)[C@H](Cc2ccccc2)NC(=O)[C@H](Cc2ccccc2)NC(=O)[C@H](CC(C)C)NC1=O [compound 16] ({Biotin-PEG10}-RRR[PEG10][Pra]LLFFF[Lys(N3)]-NH2; triazole 5-11) | – | 45.02% | – | Relative affinity (ratio of ELISA signal versus cy(LLFFF)) ([1]; ELISA 5, [MrkA] 25 nM): 0.90 |
| CC(C)C[C@@H]1NC(=O)[C@@H](NC(=O)CCOCCOCCOCCOCCOCCOCCOCCOCCOCCOCCNC(=O)[C@H](CCCNC(=N)N)NC(=O)[C@H](CCCNC(=N)N)NC(=O)[C@H](CCCNC(=N)N)NC(=O)[C@H](CCCNC(=N)N)NC(=O)[C@H](CCCNC(=N)N)NC(=O)[C@H](CCCNC(=N)N)NC(=O)CCOCCOCCOCCOCCOCCOCCOCCOCCOCCOCCNC(=O)CCCC[C@@H]2SC[C@@H]3NC(=O)N[C@@H]32)Cc2cn(nn2)CCCC[C@@H](C(N)=O)NC(=O)[C@H](Cc2ccccc2)NC(=O)[C@H](Cc2ccccc2)NC(=O)[C@H](Cc2ccccc2)NC(=O)[C@H](CC(C)C)NC1=O [compound 17] ({Biotin-PEG10}-RRRRRR[PEG10][Pra]LLFFF[Lys(N3)]-NH2; triazole 8-14) | – | 39.82% | – | Relative affinity (ratio of ELISA signal versus cy(LLFFF)) ([1]; ELISA 5, [MrkA] 25 nM): 1.22 |
| CC(C)C[C@@H]1NC(=O)[C@H](CCCNC(=N)N)NC(=O)[C@H](Cc2c[nH]cn2)NC(=O)[C@H](C(C)C)NC(=O)CNC(=O)[C@@H](NC(=O)CCOCCOCCOCCOCCOCCNC(=O)CCCC[C@@H]2SC[C@@H]3NC(=O)N[C@@H]32)Cc2cn(nn2)CCCC[C@@H](C(N)=O)NC1=O [cy(GVHRL)] ({Biotin-PEG5}-[Pra]GVHRL[Lys(N3)]-NH2; triazole 1-7) | – | – | lower affinities | affinities to MrkA [1]: ~1 µM |
| C[C@@H](O)[C@@H]1NC(=O)[C@@H](NC(=O)CCOCCOCCOCCOCCOCCNC(=O)CCCC[C@@H]2SC[C@@H]3NC(=O)N[C@@H]32)Cc2cn(nn2)CCCC[C@@H](C(N)=O)NC(=O)[C@H](Cc2ccccc2)NC(=O)[C@H](Cc2ccccc2)NC(=O)[C@H](Cc2ccccc2)NC(=O)[C@H]([C@@H](C)O)NC1=O [cy(TTFFF)] ({Biotin-PEG5}-[Pra]TTFFF[Lys(N3)]-NH2; triazole 1-7; N-terminus assumed) | – | – | lower affinities | affinities to MrkA [1]: ~1 µM |
| CC(C)C[C@@H]1NC(=O)[C@H](Cc2c[nH]cn2)NC(=O)[C@H](CCCNC(=N)N)NC(=O)[C@H](Cc2ccc(O)cc2)NC(=O)[C@@H](NC(=O)CCOCCOCCOCCOCCOCCNC(=O)CCCC[C@@H]2SC[C@@H]3NC(=O)N[C@@H]32)Cc2cn(nn2)CCCC[C@@H](C(N)=O)NC(=O)CNC1=O [cy(YRHLG)] ({Biotin-PEG5}-[Pra]YRHLG[Lys(N3)]-NH2; triazole 1-7) | – | – | lower affinities | affinities to MrkA [1]: ~1 µM |
| cy(ALFFF) (cyclic) | – | – | Modestly lower binding | – |
| cy(LAFFF) (cyclic) | – | – | Modestly lower binding | – |
| cy(LLAFF) (cyclic) | – | – | Modestly lower binding | – |

Source: patent US12201679B2, “Epitope-targeted peptide immunostimulants” (priority 2019, dated 2025)
